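Step 1: Grow cells in 96-well plates. Step 2: Expose to compound for 48 hours at 5 concentrations. Step 3: Interpolate endpoints linearly; if unreached, use highest concentration. GI50 is the concentration that inhibits growth by half.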 Calls of active or inactive are those of the source. Rule as the data show it: active = GI50 up to about 1.1 µM and inactive = higher. A value given as a limit tells only on which side of the number the result lay.

Some test systems named below: IGROV-1; HCT-116; 786-0; HCC 2998; MOLT-4; SF-539; COLO 205; SNB-19; HCT-15; OVCAR-4; RPMI-8226; NCI-H522; K562; SR; NCI-H23; SF-268; HL-60; UACC-257; A498.
What all share (experiment): NCI tumour cell line growth inhibition, 48 h

In the case of `CCOC(=O)c1cc(OC(=O)CC)c2c(OC)ccc(OC)c2c1`, the GI50 is > 100 µM (inactive) in the assay with IGROV-1; 70.1 µM (inactive) in the assay with HCT-116; 31 µM (inactive) in the assay on 786-0; > 100 µM (inactive) with HCC 2998; 43.7 µM (inactive) in the assay with MOLT-4; 47.2 µM (inactive) in the assay with SF-539. Further, the GI50 is > 100 µM (inactive) in the assay with COLO 205; 89.3 µM (inactive) with SNB-19; 25.9 µM with HCT-15; 52.4 µM (inactive) in the assay with OVCAR-4; 30.5 µM (inactive) with RPMI-8226; > 100 µM (inactive) with NCI-H522. Further, the GI50 with K562 is 42.3 µM (inactive); in the assay on SR it was 18.7 µM (inactive); in the assay with NCI-H23, 74 µM (inactive).

Consider `CC(C)(C)S(=O)OC12CC3CC(CC(C3)C1)C2` (stereo not drawn), for which the GI50 in the assay on IGROV-1, in the assay with HCT-116, in the assay on 786-0, in the assay on MOLT-4, with SF-539 and in the assay with COLO 205 was > 100 µM (inactive) each time. Also, the GI50 with SNB-19 was > 100 µM (inactive); in the assay on HCT-15, over 100 µM; in the assay on OVCAR-4, > 100 µM (inactive); in the assay on RPMI-8226 it was > 100 µM (inactive); with NCI-H522, > 100 µM (inactive); in the assay on K562, > 10 µM (inactive). Also, the GI50 in the assay with SR, in the assay on NCI-H23 and in the assay with SF-268 was > 100 µM (inactive) in each case.

Regarding `CN(C)c1ccc(/C=C(\NC(=O)c2ccccc2)c2nc3cncnc3[nH]2)cc1`, the GI50 with IGROV-1, in the assay with 786-0, in the assay with HCC 2998, in the assay on MOLT-4, in the assay on SF-539 and with COLO 205 was > 100 µM (inactive) each time. The GI50 with SNB-19 was > 100 µM (inactive); with HCT-15, over 100 µM; in the assay with OVCAR-4, > 100 µM (inactive); in the assay on NCI-H522, > 100 µM (inactive); with K562, > 100 µM (inactive); in the assay with HL-60 it was > 100 µM (inactive). Moreover, the GI50 with SR, in the assay on NCI-H23 and in the assay with SF-268 was > 100 µM (inactive) throughout.

For `COC1C(O)CC(OC2CC(OC3CC(O[C@@H]4C(=O)c5c(cc6cc(OC7CC(OC8CC(O)C(O)C(C)O8)C(O)C(C)O7)c(C)c(O)c6c5O)C[C@H]4[C@H](OC)C(=O)[C@@H](O)[C@@H](C)O)OC(C)C3O)OC(C)C2O)OC1C` (stereo partly drawn), the GI50 is < 0.01 µM (active) in the assay with HCT-116; < 0.0194 µM (active) in the assay on 786-0; 0.0136 µM (active) in the assay on HCC 2998; < 0.0159 µM (active) in the assay with MOLT-4; < 0.0119 µM (active) with SF-539; 0.0189 µM (active) with COLO 205. In addition, the GI50 in the assay on SNB-19 is < 0.0194 µM (active); in the assay with HCT-15, 0.673 µM; in the assay with OVCAR-4, 0.0671 µM (active); in the assay with RPMI-8226, < 0.01 µM (active); with NCI-H522 it was < 0.0118 µM (active); in the assay with UACC-257, < 0.0166 µM (active). Also, the GI50 in the assay on SR was < 0.01 µM (active); in the assay on SF-268, 0.0141 µM (active).

As to `CCCCCCCCCCCCCP(=O)(O)NCC(N)=O`, the GI50 in the assay on IGROV-1 was 41.2 µM (inactive); with HCT-116, 45.7 µM (inactive); with 786-0, > 100 µM (inactive); in the assay on HCC 2998, > 100 µM (inactive); with SF-539, 55.7 µM (inactive); in the assay with COLO 205, > 100 µM (inactive). The GI50 is 45.6 µM (inactive) in the assay with SNB-19; 39.9 µM in the assay on HCT-15; 28.7 µM (inactive) in the assay with OVCAR-4; 35.1 µM (inactive) in the assay on RPMI-8226; > 100 µM (inactive) in the assay on A498; 34.5 µM (inactive) in the assay on NCI-H522. Moreover, the GI50 in the assay on HL-60 was 19.7 µM (inactive); with UACC-257, 59.4 µM (inactive); in the assay with NCI-H23, > 100 µM (inactive); with SF-268, 48.4 µM (inactive).

Regarding `COc1ccc2nc(NC(=O)C(=O)C(C#N)c3ccc(CC#N)cc3)sc2c1` (stereo not drawn), the GI50 in the assay on IGROV-1, in the assay with HCT-116, in the assay on 786-0, in the assay with HCC 2998, with MOLT-4 and in the assay with SF-539 was > 100 µM (inactive) throughout. In addition, the GI50 with COLO 205 was > 100 µM (inactive); in the assay with SNB-19, 53 µM (inactive); in the assay on HCT-15 it was over 100 µM; with OVCAR-4, > 100 µM (inactive); in the assay on RPMI-8226 it was > 100 µM (inactive); in the assay with A498, > 100 µM (inactive). The GI50 in the assay on NCI-H522, in the assay with K562, in the assay on HL-60, with UACC-257, in the assay on NCI-H23 and with SF-268 was > 100 µM (inactive) throughout.

Turning to `CC(C)(C)c1cc(C(O)(C(F)(F)F)C(F)(F)F)c2c(c1)C(C(F)(F)F)(C(F)(F)F)OC(c1ccccc1)(C(C)(C)C)N2` (stereo not drawn), the GI50 was 4.33 µM (inactive) in the assay with IGROV-1; 3.72 µM (inactive) with HCT-116; > 100 µM (inactive) with 786-0; 8.07 µM (inactive) in the assay on HCC 2998; 2.07 µM (inactive) in the assay on MOLT-4; > 100 µM (inactive) in the assay with SF-539. The GI50 is 4.08 µM (inactive) in the assay on COLO 205; 4.65 µM (inactive) in the assay on SNB-19; 3.56 µM in the assay with HCT-15; 14.4 µM (inactive) in the assay with OVCAR-4; 3.07 µM (inactive) with RPMI-8226; 3.03 µM (inactive) in the assay with NCI-H522. For the same molecule, the GI50 was 3.07 µM (inactive) with K562, 4.99 µM (inactive) with UACC-257, 2.58 µM (inactive) in the assay with SR and 1.99 µM (inactive) in the assay on NCI-H23.

With `O=C1C(Cl)C(c2ccc(Cl)cc2)N1n1cnc2ccccc2c1=O` (stereo not drawn), the GI50 in the assay with IGROV-1 was 96.2 µM (inactive); in the assay on HCT-116, > 100 µM (inactive); in the assay on 786-0 it was > 100 µM (inactive); in the assay with HCC 2998 it was > 100 µM (inactive); with MOLT-4, 88.9 µM (inactive); with COLO 205, > 100 µM (inactive). Also, the GI50 was > 100 µM (inactive) in the assay on SNB-19; 92 µM in the assay with HCT-15; > 100 µM (inactive) in the assay with OVCAR-4; 40.6 µM (inactive) in the assay on RPMI-8226; 55.2 µM (inactive) with NCI-H522; 35.6 µM (inactive) in the assay with K562. For the same molecule, the GI50 with HL-60 was 39 µM (inactive); in the assay on UACC-257, > 100 µM (inactive); with SR, 52.7 µM (inactive); with NCI-H23, > 100 µM (inactive); in the assay with SF-268, > 100 µM (inactive).

Turning to `CN1CCN(C)C1c1cccc(C2N(C)CCN2C)c1`, the GI50 in the assay with IGROV-1, in the assay with HCT-116, in the assay with 786-0, with HCC 2998, with MOLT-4 and with SF-539 was > 100 µM (inactive) throughout. Moreover, the GI50 was > 100 µM (inactive) in the assay on COLO 205; > 100 µM (inactive) in the assay on SNB-19; over 100 µM in the assay with HCT-15; > 100 µM (inactive) with OVCAR-4; > 100 µM (inactive) with RPMI-8226; > 100 µM (inactive) in the assay on A498. The GI50 in the assay with NCI-H522 was > 100 µM (inactive); in the assay with K562, 46.2 µM (inactive); in the assay on HL-60, > 100 µM (inactive); in the assay on NCI-H23 it was > 100 µM (inactive); in the assay with SF-268, > 100 µM (inactive).

Values taken from ChEMBL document CHEMBL1201862, “PubChem BioAssay data set” (2004).
